ChEMBL document CHEMBL1141099, “Discovery of N-(2,6-dimethylphenyl)-substituted semicarbazones as anticonvulsants: hybrid pharmacophore-based design” (2005)
Calls of active or inactive are those of the source. The calls are words filed in the database; no cut-off is given here.

How the values were obtained:
[1] = tested on: Rattus norvegicus; experiment: Number of rats protected at a dose of 30 mg/Kg when given oral at 2 hr upon maximal electroshock seizure; Total number of rats = 4; format: functional
[2] = tested on: Rattus norvegicus; experiment: Number of rats protected at a dose of 30 mg/Kg when given oral at 4 hr upon maximal electroshock seizure; Total number of rats = 4; format: functional
[3] = tested on: Mus musculus; experiment: Minimum dose required for anticonvulsant activity when given i.p., at 0.5 hr in mice upon maximal electroshock seizure; format: functional
[4] = tested on: Mus musculus; experiment: Minimum dose required for anticonvulsant activity when given i.p., at 2 hr in mice upon subcutaneous strychnine seizure; format: functional
[5] = tested on: Rattus norvegicus; experiment: Number of rats protected at a dose of 30 mg/Kg when given oral at 0.5 hr upon maximal electroshock seizure; Total number of rats = 4; format: functional
[6] = tested on: Mus musculus; experiment: Minimum dose required for anticonvulsant activity when given i.p., at 0.5 hr in mice upon subcutaneous strychnine seizure; format: functional
[7] = tested on: Mus musculus; experiment: Post treatment activity score for CNS study using a actophotometer at a dose of 100 mg/Kg after 0.5 hr when given i.p., in mice (No. of animals 6); Control (24h before) 280
[8] = tested on: Mus musculus; experiment: Post treatment activity score for CNS study using a actophotometer at a dose of 100 mg/Kg after 1 hr when given i.p., in mice (No. of animals 6); Control (24h before) 280
[9] = tested on: Rattus norvegicus; experiment: Number of rats protected at a dose of 30 mg/Kg when given oral at 0.25 hr upon maximal electroshock seizure; Total number of rats = 4; format: functional
[10] = tested on: Rattus norvegicus; experiment: Number of rats protected at a dose of 30 mg/Kg when given oral at 1 hr upon maximal electroshock seizure; Total number of rats = 4; format: functional
[11] = tested on: Mus musculus; experiment: Minimum dose required for anticonvulsant activity when given i.p., at 0.5 hr in mice upon neurotoxicity seizure using rotarod test; format: functional
[12] = tested on: Mus musculus; experiment: Minimum dose required for anticonvulsant activity when given i.p., at 0.5 hr in mice upon subcutaneous pentylenetetrazole seizure; format: functional
[13] = tested on: Mus musculus; experiment: Minimum dose required for anticonvulsant activity when given i.p., at 4 hr in mice upon maximal electroshock seizure; format: functional
[14] = tested on: Mus musculus; experiment: Post treatment activity score for CNS study using a actophotometer at a dose of 100 mg/Kg after 1 hr when given i.p., in mice (No. of animals 6); Control (24h before) 201
[15] = tested on: Mus musculus; experiment: Post treatment activity score for CNS study using a actophotometer at a dose of 100 mg/Kg after 0.5 hr when given i.p., in mice (No. of animals 6); Control (24h before) 201
[16] = tested on: Rattus norvegicus; experiment: Number of rats protected at a dose of 30 mg/Kg when given oral at 1 hr upon maximal electroshock seizure; Total number of rats = 4; Absence of activity; format: functional, organism-based
[17] = tested on: Rattus norvegicus; experiment: Number of rats protected at a dose of 30 mg/Kg when given oral at 4 hr upon maximal electroshock seizure; Total number of rats = 4; Absence of activity; format: functional, organism-based
[18] = tested on: Rattus norvegicus; experiment: Number of rats protected at a dose of 30 mg/Kg when given oral at 2 hr upon maximal electroshock seizure; Total number of rats = 4; Absence of activity; format: functional, organism-based
[19] = tested on: Rattus norvegicus; experiment: Number of rats protected at a dose of 30 mg/Kg when given oral at 0.25 hr upon maximal electroshock seizure; Total number of rats = 4; Absence of activity; format: functional, organism-based
[20] = tested on: Rattus norvegicus; experiment: Minimum dose required for anticonvulsant activity when given i.p., at 2 hr in mice upon subcutaneous strychnine seizure; Absence of activity; format: functional, organism-based; details: Mus musculus
[21] = tested on: Rattus norvegicus; experiment: Number of rats protected at a dose of 30 mg/Kg when given oral at 0.5 hr upon maximal electroshock seizure; Total number of rats = 4; Absence of activity; format: functional, organism-based
[22] = tested on: Mus musculus; experiment: Post treatment immobility time for CNS study using Porsolt's swimpool test at a dose of 100 mg/Kg after 1 hr when given i.p., in mice (No. of animals 6); Control (24h before) 131
[23] = tested on: Mus musculus; experiment: Post treatment activity score for CNS study using a actophotometer at a dose of 100 mg/Kg after 1 hr when given i.p., in mice (No. of animals 6); Control (24h before) 270
[24] = tested on: Mus musculus; experiment: Post treatment activity score for CNS study using a actophotometer at a dose of 100 mg/Kg after 0.5 hr when given i.p., in mice (No. of animals 6); Control (24h before) 270
[25] = tested on: Mus musculus; experiment: Post treatment activity score for CNS study using a actophotometer at a dose of 100 mg/Kg after 1 h when given i.p., in mice (No. of animals 6); Control (24h before) 372
[26] = tested on: Mus musculus; experiment: Post treatment activity score for CNS study using a actophotometer at a dose of 100 mg/Kg after 0.5 hr when given i.p., in mice (No. of animals 6); Control (24h before) 372
[27] = tested on: Rattus norvegicus; experiment: Enzymatic activity to assess the increase in level of SGPT at a dose of 30 mg/Kg for 14 days when given p.o., in 6 rats; Control 45.0; format: functional
[28] = tested on: Mus musculus; experiment: Minimum dose required for anticonvulsant activity when given i.p., in mice upon neurotoxicity seizure using rotarod test
[29] = tested on: Rattus norvegicus; experiment: Minimum dose required for anticonvulsant activity when given i.p., at 0.5 hr in mice upon subcutaneous pentylenetetrazole seizure; Absence of activity; format: functional, organism-based; details: Mus musculus
[30] = tested on: Rattus norvegicus; experiment: Toxic dose observed for anticonvulsant activity when given orally at 2 hr in rat upon neurotoxicity seizure; format: functional; details: po
[31] = tested on: Rattus norvegicus; experiment: Toxic dose observed for anticonvulsant activity when given i.p., at 2 hr in rat upon neurotoxicity seizure; format: functional; details: ip
[32] = tested on: Mus musculus; experiment: Post treatment activity score for CNS study using a actophotometer at a dose of 100 mg/Kg after 1 hr when given i.p., in mice (No. of animals 6); Control (24h before) 247
[33] = tested on: Rattus norvegicus; experiment: Minimum dose required for anticonvulsant activity when given i.p., in mice upon subcutaneous picrotoxin seizure; Absence of activity; format: functional, organism-based; details: Mus musculus
[34] = tested on: Rattus norvegicus; experiment: Effective dose required for anticonvulsant activity when given i.p., at 2 hr in rat upon maximal electroshock seizure; format: functional; details: ip
[35] = tested on: Mus musculus; experiment: Post treatment activity score for CNS study using a actophotometer at a dose of 100 mg/Kg after 0.5 hr when given i.p., in mice (No. of animals 6); Control (24h before) 247
[36] = tested on: Rattus norvegicus; experiment: Enzymatic activity to assess the increase in level of SGOT at a dose of 30 mg/Kg for 14 days when given p.o., in 6 rats; Control 73.1; format: functional
[37] = species on record: Rattus norvegicus; experiment: Protective index between effective dose and toxic dose in rat; format: functional
[38] = tested on: Mus musculus; experiment: Post treatment immobility time for CNS study using Porsolt's swimpool test at a dose of 100 mg/Kg after 1 hr when given i.p., in mice (No. of animals 6); Control (24h before) 159
[39] = tested on: Mus musculus; experiment: Post treatment activity score for CNS study using a actophotometer at a dose of 100 mg/Kg after 1 h when given i.p., in mice (No. of animals 6); Control (24h before) 214
[40] = tested on: Mus musculus; experiment: Post treatment activity score for CNS study using a actophotometer at a dose of 100 mg/Kg after 0.5 hr when given i.p., in mice (No. of animals 6); Control (24h before) 214
[41] = tested on: Rattus norvegicus; experiment: Effective dose required for anticonvulsant activity when given orally at 2 h in rat upon maximal electroshock seizure; format: functional; details: po

SMILES	Activity [1]	Activity [2]	MES [3] [mg/kg]	STY seizure [4] [mg/kg]	Activity [5]	STY seizure [6] [mg/kg]	Activity [9]	Activity [10]	NT [11] [mg/kg]	PTZ seizure [12] [mg/kg]	MES [13] [mg/kg]	further results
Cc1cccc(C)c1NC(=O)/N=N/c1c(O)[nH]c2ccc(Cl)cc12	1	1	100	100	1	30	1	0	300	300	300	Activity [7]: 263; Activity [8]: 267
Cc1cccc(C)c1NC(=O)/N=N/c1c(O)[nH]c2ccc(Br)cc12	2	0	100	100	1	30	1	0	300		300	Activity [14]: 176; Activity [15]: 172
NC(=O)N1c2ccccc2C=Cc2ccccc21 [CARBAMAZEPINE]			30						100	100	100	Activity [16]: inactive; Activity [17]: inactive; Activity [18]: inactive; Activity [19]: inactive; STY seizure [20]: inactive; Activity [21]: inactive; Activity [22]: 207
Cc1cccc(C)c1NC(=O)/N=N/c1c(O)[nH]c2ccccc12	1	3	100	100	2	30	2	1	300		300	Activity [23]: 217; Activity [24]: 224
Cc1ccc2[nH]c(O)c(/N=N/C(=O)Nc3c(C)cccc3C)c2c1	3	3	100	100	1	30	1	3	300	300	300	Activity [25]: 368; Activity [26]: 355
O=C1NC(=O)C(c2ccccc2)(c2ccccc2)N1 [PHENYTOIN]	3	3	30		4		1	3	100		30	SGPT activity [27]: 52.6 units/mL; NT [28]: 100 mg/kg; PTZ seizure [29]: inactive; TD50 [30]: > 500 mg/kg; TD50 [31]: 42.8 mg/kg; Activity [32]: 106; PIC seizure [33]: inactive; ED50 [34]: 6.48 mg/kg; Activity [35]: 104; STY seizure [20]: inactive; SGOT activity [36]: 84.1 units/mL
CC(=O)C/C(C)=N\NC(=O)Nc1c(C)cccc1C	4	4	100	300	4	100	2	2	300	300	300	PI [37]: >10.8; NT [28]: 300 mg/kg; TD50 [30]: > 216 mg/kg; Activity [38]: 228; Activity [39]: 144; Activity [40]: 127; ED50 [41]: 19.8 mg/kg
